According to patent US10703764B2, “Benzopiperazine compositions as BET bromodomain inhibitors” (FORMA Therapeutics, Inc., priority 2013, dated 2020):
Where two headings read alike, the source gives them in different places.

Tests used:
BRD4 BD1 = target: T1, BRD4 BD1 (Homo sapiens, UniProt O60885); assay: AlphaScreen binding assay, BRD4 Bromodomain 1
T1 construct: made in house
In short: (§1)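 An AlphaScreen competition format was used with His-BRD4 BD1 or BD2 and biotin-H4 K5/8/12/16-acetyl peptide, each at matched final levels of 50 nM (BD1) or 100 nM (BD2). Incubation in HEPES/NaCl buffer with 0.1% BSA and 0.01% Triton X-100 ran ≥1 h before IC50 determination.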

BRD4 BD2 = target: T2, BRD4 BD2 (Homo sapiens, UniProt O60885); assay: AlphaScreen binding assay, BRD4 Bromodomain 2
T2 construct: made in house
In short: as §1

MV4-11 cells = assay: Oncology cell growth assay (3-day proliferation, CellTiter-Glo); type: cell-based; details: Homo sapiens, AML cell line MV4-11, 72 hours, compounds grouped by IC50 range, read-out: MV4-11 IC50 (inhibition of proliferation, gIC50)
In short: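 Compounds were serially diluted 3-fold in DMSO, giving final well concentrations from 10 down to 0.0045 μM. MV4-11 cells were then seeded at 3000 cells/well in RPMI 1640 with 10% FBS and incubated 72 hours. CellTiter-Glo signal was measured and gIC50 obtained by four-parameter logistic regression.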

| Structure (SMILES) | IC50 (BRD4 BD1) [nM] | IC50 (BRD4 BD2) [nM] | IC50 (MV4-11 cells) [nM] | IC50 (MV4-11 cells; MV4-11, 72 h) [nM] |
| --- | --- | --- | --- | --- |
| CC(=O)N1c2ccc(-c3cnn(C4CCNCC4)c3)cc2N(C(=O)Oc2ccc(F)cc2)C[C@@H]1C [Example I-1149] | 100 to 1000 | 50 to 500 | < 100 | – |
| CC(=O)N1c2ccc(-c3cnn(Cc4cc(C)no4)c3)cc2N(C(=O)C2CC2)C[C@@H]1C [Example I-149, (S)-1-(4-(cyclopropanecarbonyl)-2-methyl-6-(1-((3-methylisoxazol-5-yl)methyl)-1H-pyrazol-4-yl)-3,4-dihydroquinoxalin-1 (2H)-yl)ethanone] | 100 to 1000 | 50 to 500 | – | 100 to 500 |
| CC(=O)N1c2ccc(-c3ccc(OCCS(C)(=O)=O)cc3)cc2N(C(=O)OC2CCOCC2)C[C@@H]1C [Example I-1252] | 100 to 1000 | 50 to 500 | – | 100 to 500 |
| CC(=O)N1c2ccc(-c3ccc(NS(C)(=O)=O)c(C)c3)cc2N(C(=O)C2CCC2)C[C@@H]1C [Example I-1172] | 100 to 1000 | 50 to 500 | – | 100 to 500 |
| CC(=O)N1c2ccc(-c3ccc(S(=O)(=O)N(C)C)cc3)cc2N(C(=O)OC2CCOCC2)C[C@@H]1C [Example I-1264] | 100 to 1000 | 50 to 500 | – | 100 to 500 |
| CC(=O)N1c2ccc(-c3ccc(NS(C)(=O)=O)cc3)cc2N(C(=O)C2CC2)C[C@@H]1C [Example I-349] | 100 to 1000 | 50 to 500 | – | 100 to 500 |
| CC(=O)N1c2ccc(-c3ccc(F)c(S(C)(=O)=O)c3)cc2N(C(=O)OC2CCCCC2)C[C@@H]1C [Example I-1249] | 1000 to 10000 | 50 to 500 | – | 100 to 500 |
| CC(=O)N1c2ccc(-c3cnn(C4COC4)c3)cc2N(C(=O)OCC(C)(C)F)C[C@@H]1C [Example I-77, (S)-2-fluoro-2-methylpropyl 4-acetyl-3-methyl-7-(1-(oxetan-3-yl)-1H-pyrazol-4-yl)-3,4-dihydroquinoxaline-1(2H)-carboxylate] | < 100 | < 50 | – | 100 to 500 |
| CC(=O)N1c2ccc(-c3cccc(N4CCCCC4)c3)cc2N(C(=O)c2ccco2)C[C@@H]1C [Example I-867] | 1000 to 10000 | 50 to 500 | – | > 500 |
| CC(=O)N1c2ccc(-c3ccc(C(=O)N4CC(O)C4)cc3)cc2N(C(=O)OC(C)C)C[C@@H]1C [Example I-582] | 100 to 1000 | 50 to 500 | – | 100 to 500 |
| CC(=O)N1c2ccc(-c3ccc4nccn4c3)cc2N(C(=O)c2ccco2)C[C@@H]1C [Example I-382] | 1000 to 10000 | > 500 | – | 100 to 500 |
| CC(=O)N1c2ccc(-c3ccc(N4CCOCC4)nc3)cc2N(C(=O)c2ccco2)C[C@@H]1C [Example I-800] | 1000 to 10000 | 50 to 500 | – | 100 to 500 |
| CC(=O)N1c2ccc(-c3cnn(C4CCNCC4)c3)cc2N(C(=O)OC2CCCCC2)C[C@@H]1C [Example I-1303] | 100 to 1000 | 50 to 500 | – | < 100 |
| CC(=O)N1c2ccc(-c3ccc(S(=O)(=O)N(C)C)cc3)cc2N(C(=O)C2CC2)C[C@@H]1C [Example I-1123] | 1000 to 10000 | 50 to 500 | – | 100 to 500 |
| CC(=O)N1c2ccc(-c3cccc(N4CCCS4(=O)=O)c3)cc2N(C(=O)OC(C)C)C[C@@H]1C [Example I-1153] | 100 to 1000 | 50 to 500 | – | 100 to 500 |
| CCS(=O)(=O)c1cccc(-c2ccc3c(c2)N(C(=O)OC2CCOCC2)C[C@H](C)N3C(C)=O)c1 [Example I-1246] | 100 to 1000 | 50 to 500 | – | 100 to 500 |
| CC(=O)N1c2ccc(-c3cnn(C4CC4)c3)cc2N(C(=O)Oc2ccc(F)cc2F)C[C@@H]1C [Example I-499] | 100 to 1000 | 50 to 500 | – | 100 to 500 |
| CC(=O)N1c2ccc(-c3cn(C)cn3)cc2N(C(=O)c2ccco2)C[C@@H]1C [Example I-401] | 1000 to 10000 | < 50 | – | 100 to 500 |
| COC(=O)N1c2ccc(-c3cnn(C[C@H]4CCNC4)c3)cc2N(C(=O)OC(C)C)C[C@@H]1C [Example I-692] | 100 to 1000 | 50 to 500 | – | > 500 |
